Laboratory results: US10478437B2, “Combination therapy to enhance the anticancer efficacy of platinum drugs” (University of Pittsburgh-of the Commonwealth System of …, priority 2014, dated 2019)
Entries after “also recorded” stand apart in the source; their conditions may differ.

Experiments:
Assay type in all cases: cell-based, human
[1] = system: PEO4, SKOV3, H1299, MDA-MB-231, Ca133 cells; test: Western blot of PARP and Caspase-3 cleavage in other cisplatin-resistant cancer cells; details: 20 μM alone, 20 h, FIG. 9; in words
Procedure: FIG. 9. The combination of cisplatin and compound 1-6 triggers extensive apoptosis in various types of cisplatin- and multidrug-resistant tumor cells. Cisplatin-resistant cancer cells PEO4 (ovarian), SKOV3 (ovarian), H1299 (lung), MDA-MB-231 (breast), Ca133 (head & neck) were treated with DMSO (untreated), cisplatin (20 μM) alone, compound 1-6 (20 μM) alone, or the combination for 20 h. Cleavage of PARP and Caspase-3 were determined by western blot.
(§1) Whole cell lysate was prepared by lysing cells in cell lysis buffer (Cell signaling technology) containing complete protease inhibitor (Roche). Cell lysates were then cleared at 15,000 rpm for 15 min at 4° C. The protein content was quantified using a Bio-Rad Protein Assay kit (Bio-Rad Laboratories, Hercules, Calif.). The equal amount of protein was separated on Tris-glycine gels (Invitrogen). The separated proteins were blotted onto a polyvinylidene difluoride membrane and blocked overnight at 4° C. in phosphate-buffered saline containing 0.1% Tween 20 and 10% nonfat dry milk (blocking buffer). Membranes were incubated with primary antibodies in blocking buffer overnight at 4° C. Primary antibodies used were: β-actin from Sigma; Bax, Bak, Caspase-9 and cleaved Caspase-3 from Cell Signaling Technology; phospho-Histone H2AX (Ser 139) and Noxa from Millipore. Membranes were then washed and incubated in peroxidase conjugated anti-rabbit IgG (Sigma) or anti-mouse IgG (Sigma) secondary antibody for 1 h at room temperature. Membranes were developed using SuperSignal West Femto Maximum Sensitivity Substrate (Thermo Fisher Scientific).
To evaluate whether the synergistic effects of the disclosed compounds and cisplatin could be extended to other types of cancer cells, breast cancer cells (MDA-MB-231), non-small cell lung carcinoma cells (H-1299), ovarian cancer cells (PEO4 and SKOV3) and head and neck cancer cells (Ca133) were treated with various combinations of cisplatin and compound 1-6 and analyzed for Caspase-3.

[2] = system: cisplatin-resistant ovarian cancer cell line A2780cis; test: Caspase-3/7 activity assay (apoptotic cell death), compound alone or with cisplatin; details: for caspase-3/7 activity (Lum) with compound alone / caspase-3/7 activity (Lum) with compound and cisplatin (20 μM): Table 6; for caspase-3/7 activity (Lum) with compound alone: untreated cells 9 ± 1
How it was run: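 Caspase-3/7 activity in A2780cis cells treated with compound alone or with cisplatin, luminescent Caspase-Glo 3/7 read-out. Apoptotic morphology is checked microscopically just before measurement.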

A2780cis cells [3] = test: Western blot of caspase/PARP cleavage, Noxa induction, RPA32 and H2AX phosphorylation
Procedure: as §1
A2780cis cells were treated with cisplatin alone, compounds alone or in combination with cisplatin at indicated concentrations for 20 h to analyze apoptotic cell death in response to treatment. […] Expression and cleavage of several major caspases (Caspase-8, Caspase-9 and Caspase-3), as well as poly(ADP-ribose) polymerase (PARP) and NOXA. A2780cis cells were treated with cisplatin (20 μM) alone, compounds (20 μM) alone or in combination with cisplatin for 20 h.
To determine the effects of the compounds on DNA damage and mitochondrial dysfunction, A2780cis cells were treated with cisplatin (20 μM) alone or the combination of cisplatin with 20 μM of compound 1-6. Replication protein A (RPA) is a single strand-specific DNA-binding protein, consisting of three subunits, RPA70, RPA32, and RPA14. RPA32 is phosphorylated in response to DNA replication stress. Western blot analysis was performed to evaluate the phosphorylation of RPA32 and histone H2AX, the induction of Noxa expression and cleavage of caspase-3. […] A2780cis cells were treated with cisplatin (50 μM) alone, 1-6 (50 μM) alone or the combination of cisplatin and compound 1-6 for 4 h. The oxygen consumption rate (OCR) was measured by a Seahorse extracellular flux analyzer.

[4] = system: cisplatin-resistant ovarian cancer cell line A2780cis; test: CellTiter-Blue cell viability assay, compound alone or with cisplatin or carboplatin, 24 h
Procedure: Data were expressed as mean±standard deviation. A Student's t test was used for the comparisons between the treatment with the combination of analogs with cisplatin and with analogs alone. P<0.05 was considered statistically significant. Combination index was calculated using CompuSyn software. A value of 0.3-0.7 for the combination index indicates synergism, 0.1-0.3 indicates strong synergism, and <0.1 indicates very strong synergism (Chou, 2006).
To further validate the activity of the identified 11 active compounds (see FIG. 3), a CellTiter-Blue cell viability assay was performed with increasing concentrations (10 μM, 20 μM and 50 μM) of the disclosed compounds (see FIG. 4 and Table 5). Cisplatin resistant ovarian cancer cells (A2780cis) were treated with a disclosed compound alone, cisplatin alone or a combination of a compound with cisplatin for 24 h to determine the effects of the compounds on cell viability.
Analysis of the effect of the disclosed compounds with another platinum-containing compound, carboplatin, was performed. A2780cis cells were treated with carboplatin alone or with the combination of carboplatin and the disclosed compounds at indicated concentrations for 24 h followed by the analysis of cell viability.

A2780cis cells [5] = test: Short-term (3 h) exposure, cell survival by CellTiter-Blue after 48 h in compound free media; details: cisplatin alone, viability after two days, in words
Procedure: FIG. 5. Short-term exposure of A2780cis cells to the combination of cisplatin and compound 1-6 dramatically reduces cell survival. A2780cis cells were treated with increasing doses of cisplatin alone or the combination of cisplatin with compound 1-6 (20 μM) for 3 h. The compounds were then washed out. Cell survival was determined after 48 h incubation of cells in compound free media by CellTiter-Blue assay.
Further analysis was performed with compound 1-6. […] This synergism for the combination of cisplatin and 1-6 was further confirmed using a fresh sample of high chemical purity (98%). This synergistic effect was also observed using the CellTiter-Blue cell viability assay (FIG. 5) under an alternative exposure strategy that mimics in viva drug administration to test the combination effect. Considering the clearance of cisplatin over the time and the duration of exposure of tumor cells to the effective doses of the drugs in vivo (Los et al., 1989), a short-term exposure of cells to the combination of 20 μM of 1-6 with various doses of cisplatin was tested, followed by cell viability assay after two days.

[6] = Table 1, compound 20 μM, 20 h, mean ± S.D. of triplicates

## N.N.[Cl][Pt][Cl] [cisplatin, reference compound]
[1]
  cell death after single compound exposure: minimal effect in inducing cell death
[2]; [6]
  caspase-3/7 activity (Lum), compound alone: 30 ± 1 Lum
[2]; Table 2, compound 20 μM, 20 h
  caspase-3/7 activity (Lum), compound alone: 30 ± 1 Lum
[2]; Table 3, compound 20 μM, 20 h
  caspase-3/7 activity (Lum), compound alone: 35 ± 4 Lum
[2]; Table 4, compound 20 μM, 20 h
  caspase-3/7 activity (Lum), compound alone: 35 ± 4 Lum
[2]; compound 20 μM, 20 h
  caspase-3/7 activity (Lum) with compound alone: 28 ± 4 Lum
A2780cis cells [3]; cisplatin 20 μM alone, FIG. 8A
  time of increase in the phosphorylation of RPA32 post treatment, cisplatin alone: > 12 h
[4]; compound 20 μM, 24 h, untreated cells = 100%
  survival (%) of cells with compound alone: 89.3 ± 0.6%
A2780cis cells [5]
  effect of 3 hr exposure to cisplatin alone on cell viability: slight effect on cell viability

## CCCn1c(=S)[nH]c2cc(OC)c(OC)cc2c1=O [Compound 1-8]
[2]; FIG. 7A and Table 6, in words
  activation of Caspase-3/7 in combination with cisplatin compared to mdivi-1: more effective; also recorded: more potent than mdivi-1
[2]; Table 1, compound 20 μM with 20 μM cisplatin, 20 h
  caspase-3/7 activity (Lum), compound with cisplatin: 121 ± 4 Lum
[2]; [6]
  caspase-3/7 activity (Lum), compound alone: 14 ± 2 Lum
[2]; Table 2, compound 20 μM, 20 h
  caspase-3/7 activity (Lum), compound alone: 14 ± 2 Lum
[2]; compound 5 μM + cisplatin 20 μM, 20 h
  caspase-3/7 activity (Lum) with compound and cisplatin (20 μM): 38 ± 4 Lum
[2]; compound 5 μM, 20 h
  caspase-3/7 activity (Lum) with compound alone: 10 ± 1 Lum
[2]; compound 10 μM + cisplatin 20 μM, 20 h
  caspase-3/7 activity (Lum) with compound and cisplatin (20 μM): 72 ± 1 Lum
[2]; compound 10 μM, 20 h
  caspase-3/7 activity (Lum) with compound alone: 10 ± 1 Lum
[2]; compound 20 μM + cisplatin 20 μM, 20 h
  caspase-3/7 activity (Lum) with compound and cisplatin (20 μM): 93 ± 4 Lum
[2]; compound 20 μM, 20 h
  caspase-3/7 activity (Lum) with compound alone: 11 ± 1 Lum
[2]; alone or in the presence of cisplatin, in words
  activity in the screen (Caspase-3/7 activity and microscopic examination), active / inactive: active
[2]; in words
  Caspase-3/7 activity upon combination with cisplatin compared to cisplatin alone or compound alone: increase in Caspase-3/7 activity
A2780cis cells [3]; compound 20 μM + cisplatin 20 μM, 20 h, FIG. 7B, in words
  cleavage of caspases and PARP, induction of Noxa in combination with cisplatin: cleavage of Caspase-8, 9, 3, PARP and the induction of Noxa
[4]; 24 h, FIG. 6, in words
  cell viability after combination with carboplatin compared to carboplatin alone: cell viability was reduced
[4]; Homo sapiens, A2780cis, compound 10 μM, 24 h, untreated cells = 100%, read-out: survival (%) of cells with compound alone
  viability at 10 µM: 99.6 ± 2.9%
[4]; Homo sapiens, A2780cis, compound 20 μM, 24 h, untreated cells = 100%, read-out: survival (%) of cells with compound alone
  viability at 20 µM: 96.3 ± 3.2%
[4]; Homo sapiens, A2780cis, compound 50 μM, 24 h, untreated cells = 100%, read-out: survival (%) of cells with compound alone
  viability at 50 µM: 88.4 ± 2.1%
[4]; compound 10 μM + carboplatin 200 μM, 24 h
  Survival (%) of cells with compound and carboplatin (200 μM): 89.5 + 2.1%
[4]; compound 10 μM + cisplatin 20 μM, 24 h
  survival (%) of cells with compound and cisplatin (20 μM): 53.4 ± 1.5%
[4]; compound 10 μM with cisplatin, FIG. 4, in words
  potency at enhancing the cytotoxicity of cisplatin compared to mdivi-1: more potent than mdivi-1
[4]; compound 20 μM + carboplatin 200 μM, 24 h
  Survival (%) of cells with compound and carboplatin (200 μM): 65.8 ± 3.5%
[4]; compound 20 μM + cisplatin 20 μM, 24 h
  survival (%) of cells with compound and cisplatin (20 μM): 25.9 ± 2.3%
[4]; compound 50 μM + carboplatin 200 μM, 24 h
  Survival (%) of cells with compound and carboplatin (200 μM): 42.5 ± 2.3%
[4]; compound 50 μM + cisplatin 20 μM, 24 h
  survival (%) of cells with compound and cisplatin (20 μM): 17.9 ± 1.3%
